Values joined by “and” are separate entries in the source; they are usually repeats but may differ in a detail not shown here. Identical values can stand only once.
Legend:
MR and GR = details: Reul and de Kloet 1985; cited from earlier work
[1] = target: T1, glucocorticoid (GR) receptors (Homo sapiens, UniProt P04150); details: literature; cited from earlier work
T1 sequence (P04150 1-777): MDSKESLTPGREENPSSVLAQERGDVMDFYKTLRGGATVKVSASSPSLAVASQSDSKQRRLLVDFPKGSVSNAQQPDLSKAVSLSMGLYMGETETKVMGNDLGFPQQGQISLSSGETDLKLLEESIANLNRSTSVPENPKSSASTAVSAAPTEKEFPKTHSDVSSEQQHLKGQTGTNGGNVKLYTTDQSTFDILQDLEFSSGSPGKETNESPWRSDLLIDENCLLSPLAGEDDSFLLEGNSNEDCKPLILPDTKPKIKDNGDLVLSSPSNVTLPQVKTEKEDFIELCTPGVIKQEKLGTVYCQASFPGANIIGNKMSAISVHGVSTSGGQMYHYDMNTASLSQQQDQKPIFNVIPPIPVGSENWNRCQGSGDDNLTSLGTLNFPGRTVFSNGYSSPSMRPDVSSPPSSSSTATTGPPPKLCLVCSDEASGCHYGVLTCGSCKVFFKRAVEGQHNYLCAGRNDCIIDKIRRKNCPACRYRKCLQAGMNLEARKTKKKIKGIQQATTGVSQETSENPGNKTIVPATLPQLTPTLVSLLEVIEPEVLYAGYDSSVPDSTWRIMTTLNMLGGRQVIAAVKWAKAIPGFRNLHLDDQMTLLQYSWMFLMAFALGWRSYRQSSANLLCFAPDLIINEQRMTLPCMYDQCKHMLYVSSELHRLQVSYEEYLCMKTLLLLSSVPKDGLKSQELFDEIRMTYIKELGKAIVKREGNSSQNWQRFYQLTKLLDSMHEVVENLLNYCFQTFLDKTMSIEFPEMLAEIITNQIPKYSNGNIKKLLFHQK

[2] = tested on: nocturnal HPA axis activity in healthy controls; experiment: Two day repeated measures study of fludrocortisone's acute effects on nocturnal HPA axis activity; format: in vivo, human
Protocol: Nine healthy subjects were recruited from the community via flyers and internet postings. Subjects responding to ads were phone screened to determine if subjects met initial eligibility criteria. Those subjects meeting criteria underwent physical examination, screening labs (complete blood count, comprehensive metabolic panel, urine analysis, urine toxicology screen, TSH, FT4, serum pregnancy test) and EKG. A SCID was performed to rule out Axis I and Axis II DSM-TR pathology. At the time of this analysis and manuscript preparation, 9 subjects have been enrolled. Inclusion criteria were: (1) participants are age 18 to 85 years old with a HAM-D score less than or equal to 5. Exclusion criteria were: (1) personal history of Axis I or Axis II disorders; (2) active medical problems; (3) abuse of drugs or alcohol in the 6 months prior to study; (4) use of additional prescription medications, street drugs or alcohol during the week before the study; (5) currently pregnant or lactating.
This study is a two day repeated measures study of fludrocortisone's acute effects on nocturnal HPA axis activity in healthy controls. Blood samples were taken every 30 minutes, beginning at 1600 to 2400 on Days 1. At 1400 on Day 2, all subjects were given 0.5 mg of fludrocortisone. Blood was then resampled from 1600 to 2400 on Day 2 to assess nocturnal changes in HPA axis activity. Blood sampling was timed in the first half of the night to coincide with the time period of greatest activity of MR.
Group averages, standard deviation and effect sizes are reported. The primary end-points were chosen to be mean cortisol and ACTH from 1600 to 2400 when greatest mineralocorticoid receptor activity is expected. To determine the differential effects of fludrocortisone, data from all subjects are pooled and the average values from 1600 to 2400 are computed. Next, mean values across this time interval are computed before (Time 1) and after (Time 2) fludrocortisone and the effect size for the difference between pooled mean values is computed.

[3] = 0.5 mg fludrocortisone, treatment vs baseline

C[C@]12CCC(=O)C=C1CC[C@@H]1[C@@H]2[C@@H](O)C[C@@]2(C)[C@H]1CC[C@]2(O)C(=O)CO [cortisol]
affinity for MR relative to GR (MR and GR): greater affinity for MR than GR

CC#C[C@]1(O)CC[C@H]2[C@@H]3CCC4=CC(=O)CCC4=C3[C@@H](c3ccc(OCCN(C)C)cc3)C[C@@]21C [RU009, 11-beta-(4-dimethyl-aminoethoxyphenyl)-17-alpha-(propynyl-17beta-hydroxy-4,9-estradien-3-one)]
antagonist of glucocorticoid (GR) receptors [1]: GR antagonist effects

C[C@]12CCC(=O)C=C1CC[C@H]1[C@@H]3CC[C@](O)(C(=O)CO)[C@@]3(C)C[C@H](O)[C@@]12F [fludrocortisone]
Mean ACTH (1600 to 2400), Difference (Tx − Baseline) ([2]; 0.5 mg fludrocortisone at 1400 on Day 2): 5.76 pg/mL
Mean Cortisol (1600 to 2400), Difference (Tx − Baseline) ([2]; 0.5 mg fludrocortisone at 1400 on Day 2, 9 healthy subjects): 2.19 µg/dL
Mean Cortisol/ACTH (1600 to 2400), Difference (Tx − Baseline) ([2]; 0.5 mg fludrocortisone, post-hoc analysis): 0.0686 and 0.07
Mean ACTH (1600 to 2400), Effect Size [2, 3]: 4.46
Mean Cortisol (1600 to 2400), Effect Size [2, 3]: 1.65
Mean Cortisol/ACTH (1600 to 2400), Effect Size [2, 3]: 0.92
Mean ACTH (1600 to 2400), AUC Treatment ([2]; after 0.5 mg fludrocortisone): 13.2 pm/ml
Mean Cortisol (1600 to 2400), AUC Treatment ([2]; after 0.5 mg fludrocortisone): 1.77 µg/dL

Source: patent publication US20070270393A1, “Methods and compositions for modulation of sleep cycle” (priority 2006, published 2007)
